From the supplement of paper PMC10307832

Assays:
Test in all cases: relative viability (nuclei count vs DMSO), 5 days (fraction); higher = more cells survive
[1] = compound: CC1(COc2ccc3c(c2)ncn3-c2ccc3cccc(N4CCC(N)CC4)c3n2)COC1 [Crenolanib] + C[C@]1(O)C[C@@H](c2nc(-c3ccc4ccc(-c5ccccc5)nc4c3)c3c(N)nccn32)C1 [Linsitinib] (partner 1 µM)
In short: (§1)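 A single step with final 0.05% Triton X-100, 1% formaldehyde and 1 ug/ml Hoechst fixed the cells and stained nuclei 5 days after treatment. Lung cancer cell lines in 1536-well plates had been treated by pin tool the day after seeding with one drug alone or a fixed anchor-drug dose plus five library-drug doses (not always all listed) in √10 steps, and nuclei were counted on 4× images. Relative viability is the ratio of nuclei in treated wells to nuclei in vehicle wells, taken as the median of duplicate plates.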

[2] = compound: O=C1NC(=O)[C@@H](c2cn3c4c(cccc24)CCC3)[C@@H]1c1c[nH]c2ccccc12 [Tivantinib] + CC(=O)c1c(C)c2cnc(Nc3ccc(N4CCNCC4)cn3)nc2n(C2CCCC2)c1=O [Palbociclib] (partner 0.5 µM)
In short: as §1

[3] = compound: O=C1NC(=O)[C@@H](c2cn3c4c(cccc24)CCC3)[C@@H]1c1c[nH]c2ccccc12 [Tivantinib] + Nc1ncn([C@H]2C[C@H](O)[C@@H](CO)O2)c(=O)n1 [Decitabine] (partner 2 µM)
In short: as §1

[4] = compound: CC1(COc2ccc3c(c2)ncn3-c2ccc3cccc(N4CCC(N)CC4)c3n2)COC1 [Crenolanib] + C[C@@H](Oc1cc(-c2cnn(C3CCNCC3)c2)cnc1N)c1c(Cl)ccc(F)c1Cl [Crizotinib] (partner 1 µM)
In short: as §1

Cell Line	relative viability ([1]; first compound 0.01 µM)	relative viability ([1]; first compound 0.03162 µM)	relative viability ([1]; first compound 0.1 µM)	relative viability ([1]; first compound 0.3162 µM)	relative viability ([1]; first compound 1 µM)	relative viability ([2]; first compound 0.01 µM)	relative viability ([2]; first compound 0.03162 µM)	relative viability ([2]; first compound 0.1 µM)	relative viability ([2]; first compound 0.3162 µM)	relative viability ([3]; first compound 0.01 µM)	relative viability ([3]; first compound 0.03162 µM)	relative viability ([3]; first compound 0.1 µM)	relative viability ([3]; first compound 0.3162 µM)	relative viability ([4]; first compound 0.01 µM)	relative viability ([4]; first compound 0.03162 µM)	relative viability ([4]; first compound 0.1 µM)	relative viability ([4]; first compound 0.3162 µM)	relative viability ([4]; first compound 1 µM)
NCI-H23	0.563	0.671	0.548	0.759	0.648	0.614	0.457	0.462	0.493	0.333	0.294	0.31	0.318	0.689	0.476	0.615	0.441	0.575
NCI-H322M	0.944	0.923	0.884	0.935	0.975	0.519	0.484	0.475		0.615	0.703	0.715		0.96	0.807	1	0.903	1.05
NCI-H358	0.819	0.682	0.566	0.727	0.58	0.172	0.16	0.151	0.0952	0.212	0.227	0.189	0.145	0.701	0.584	0.592	0.454	0.661
NCI-H441	0.555	0.508	0.46	0.484	0.509	0.224	0.209	0.199	0.212	0.22	0.261	0.139	0.239	0.684	0.738	0.56	0.772	0.846
NCI-H460	0.85	0.817	0.745	1.02	0.816	0.141	0.138	0.162	0.135	0.496	0.499	0.427	0.458	0.935	0.924	0.904	1.19	0.831
NCI-H520	0.89	1.07	0.853	1.08	0.868	0.263	0.213	0.2	0.203	0.462	0.454	0.46	0.436	0.743	0.915	0.802	0.933	0.983
NCI-H647	1.14	1.11	1.09	1.31	1.34	0.433	0.347	0.356	0.409	0.437	0.305	0.381	0.357	1.07	1.03	1.03	1.01	1.03
NCI-H650	1.06	0.969	0.952	0.923	0.715	0.392	0.32	0.314	0.323	0.355	0.287	0.315	0.327	0.968	0.706	0.805	0.5	0.644
NCI-H661	0.628	0.527	0.499	0.544	0.497	0.453	0.395	0.397	0.315	0.565	0.542	0.558	0.398	1.04	1.08		1.05	1.15
NCI-H727	0.285	0.245	0.284	0.327	0.389	0.619	0.528	0.714		0.748	0.924	0.882		0.858	0.956	0.806	0.973	0.824
NCI-H838	1.05	0.967	0.929	1.09	0.943	0.245	0.212	0.188	0.207	0.446	0.48	0.428	0.442	0.883	0.855	0.821	0.872	0.772
NCI-H1355	0.857	0.848	0.773	0.947	0.809	0.395	0.374	0.385	0.384	0.377	0.316	0.342	0.381	1.15	1.07	0.973	1.06	0.894
NCI-H1437	1.05	1.03	0.958	1.12	1.02	0.311	0.28	0.335	0.289	0.57	0.568	0.497	0.545	1.02	1.04	1	1.04	0.897
NCI-H1651	1.06	0.988	0.892	1.02	0.878	0.518	0.461	0.495	0.424	0.592	0.659	0.608	0.583	0.895	0.924	0.855	0.937	0.826
NCI-H1666	0.871	0.909	0.765	0.881	0.839	0.691	0.596	0.66	0.681	0.745	0.684	0.748	0.747	1.05	0.917	1.01	0.885	1
NCI-H1734	0.925	0.934	0.858	1.02	0.895	0.384	0.319	0.336	0.366	0.532	0.487	0.506	0.427	0.684	0.708	0.657	0.778	0.693
NCI-H1755	1.01	0.981	0.994	1.09	0.959	0.437	0.44	0.432	0.459	0.727	0.67	0.725	0.765	0.835	0.932	0.832	0.917	0.854
NCI-H1792	0.603	0.648	0.554	0.532	0.518	0.685	0.62	0.627	0.618	0.535		0.473	0.505	1.05	0.958	0.933	1.17	0.943
